For data set [1] the following is noted: 101.33 kPa, Liquid, Pycnometric method.
A short description of data set [2]: xn = mol fraction of the nth substance listed. Particulars: Liquid, measurement of pressure, x2 = 0.

Mass density and binary diffusion coefficient data for three compounds are collected here from the NIST ThermoML archive (doi:10.1021/je900716q).

Molecules are shown by their SMILES. Numbers after ± are expanded uncertainties.

As a reminder, the mass density is the mass of a sample divided by its volume. `C[n+]1ccn(CCO)c1.F[B-](F)(F)F` [1-(2-hydroxyethyl)-3-methylimidazolium tetrafluoroborate]: the mass density in data set [1] (300.71 K) came to 1384 ± 1 kg/m3; in data set [1] (303.35 K), 1380 ± 1 kg/m3; in data set [1] (304.95 K) it was 1379 ± 1 kg/m3; in data set [1] (307.31 K), 1376 ± 1 kg/m3; in data set [1] (310.81 K), 1373 ± 1 kg/m3; in data set [1] (314.35 K), 1369 ± 1 kg/m3.

Turning to `C[n+]1ccn(CCO)c1.F[B-](F)(F)F` [1-(2-hydroxyethyl)-3-methylimidazolium tetrafluoroborate] + O=C=O, the binary diffusion coefficient in data set [2] (303.15 K) came out at 1.4e-08 m2/s; in data set [2] (313.15 K), 2.09e-08 m2/s; in data set [2] (323.15 K) it was 3.94e-08 m2/s; in data set [2] (333.15 K), 4.65e-08 m2/s; in data set [2] (343.15 K), 5.71e-08 m2/s; in data set [2] (353.15 K), 7.16e-08 m2/s.

Regarding `C[n+]1ccn(CCO)c1.F[B-](F)(F)F` [1-(2-hydroxyethyl)-3-methylimidazolium tetrafluoroborate] + S, the binary diffusion coefficient was 1.79e-08 m2/s in data set [2] (303.15 K); 2.15e-08 m2/s in data set [2] (313.15 K); 2.76e-08 m2/s in data set [2] (323.15 K); 3.24e-08 m2/s in data set [2] (333.15 K); 3.8e-08 m2/s in data set [2] (343.15 K); 4.41e-08 m2/s in data set [2] (353.15 K).
